For test [1], the target named is T1, KBTBD4^WT with CoREST1^NT2-HDAC2 (ternary complex) (Homo sapiens, UniProt Q92769+Q9NVX7).
T1 construct: FLAG-KBTBD4 17-534 (near full length, dimer, N-terminal 3xFLAG); untagged full-length HDAC2 1-488 co-expressed with CoREST1 ELM2-SANT1 71-259 carrying C-terminal FLAG/10xHis; Expi293F; purified; complexes 2:1:1, also 2:1 and 2:2 KBTBD4:HDAC2 by cryo-EM; with REST corepressor 1
The experiment in a line: microscale thermophoresis, labelled KBTBD4 WT. It counts as binding. (In general: Microscale thermophoresis detects binding through changes in fluorescence in a small temperature gradient.)

The target in test [2] is FLAG-KBTBD4^R313PRR (17-536 a.a.), full-length dimer (human (from the printed UniProt entry)) (UniProt Q9NVX7). The test can be described thus: MST; unlabelled partner titrated into 40 nM RED-NHS-labelled KBTBD4 variant, no compound; 50 mM HEPES pH 7.5, 150 mM NaCl, 10% glycerol, 5 mM MgCl2, 0.05% Tween-20, 0.1 mM TCEP; 25 °C; apparent KD; triplicates.
In another test the target is T2, CoREST1^NT2-HDAC2 (Homo sapiens, UniProt Q92769).
T2 construct: untagged full-length HDAC2 1-488 co-expressed with CoREST1 ELM2-SANT1 71-259 (C-terminal FLAG/10xHis) in Expi293F, purified; with REST corepressor 1
The test can be described thus: microscale thermophoresis, competition with labelled KBTBD4 R313PRR. The note with it: blocks KBTBD4 R313PRR binding to HDAC2; HDAC2 catalytic site; pH 7.5, 25 °C.

Test [3] has as its target FLAG-KBTBD4^R313PRR (17-536 a.a.), full-length dimer (human (from the printed UniProt entry)), Q9NVX7. The experiment in a line: cryo-EM structure; 4 µM KBTBD4^R313PRR mixed with 4 µM CoREST1^NT2-HDAC2, 50 mM HEPES pH 7.5, 150 mM NaCl, 10% glycerol, 5 mM MgCl2, 0.5 mM TCEP, 15 min on ice, not crosslinked. The note with it: remark: other sources report otherwise.
The target in test [4] is FLAG-KBTBD4^WT (17-534 a.a.) (human (from the printed UniProt entry)), Q9NVX7. The test can be described thus: cryo-EM structure; 4 µM KBTBD4^WT, 4 µM CoREST1^NT2-HDAC2 and 40 µM UM171, 50 mM HEPES pH 7.5, 150 mM NaCl, 5% glycerol, 5 mM MgCl2, 0.5 mM TCEP, crosslinked with BS3. The note with it: remark: other sources report otherwise.

The values below come from publication PMC11965401 (Nature Communications, 2025).

For `COC(=O)c1ccc2c(c1)[nH]c1nc(Cc3ccccc3)nc(NCCCN3CCCC3)c12` [compound 13, S234984], the Kd in test [1] amounted to 2300 nM. With “CoREST1^NT2-HDAC2 complex (recombinant, co-expressed) (from UniProt Q92769-1 1-488)”, the Kd in test [2] was determined as 750 nM.

Turning to `CC(=O)Nc1ccc(C(=O)Nc2cc(-c3cccs3)ccc2N)cc1` [BRD6929], the “microscale thermophoresis, competition with labelled KBTBD4 R313PRR” value at CoREST1^NT2-HDAC2 is “the addition of BRD6929 abrograted all KBTBD4^R313PRR-HDAC2 binding in the MST assay”.

As for `Cn1cc(-c2ccc3c(c2)[nH]c2nc(Cc4ccccc4)nc(NC4CCC(N)CC4)c23)cn1` (stereo not drawn) [compound 2, compound (2)], the Kd in test [1] came out at 26000 nM.

B1: FLAG-KBTBD4^R313PRR (17-536 a.a.), full-length dimer, Q9NVX7-2 17-534 (natural protein)
chain: MESPEEPGASMDENYFVNYTFKDRSHSGRVAQGIMKLCLEEELFADVTISVEGREFQLHRLVLSAQSCFFRSMFTSNLKEAHNRVIVLQDVSESVFQLLVDYIYHGTVKLRAEELQEIYEVSDMYQLTSLFEECSRFLARTVQVGNCLQVMWLADRHSDPELYTAAKHCAKTHLAQLQNTEEFLHLPHRLLTDIISDGVPCSQNPTEAIEAWINFNKEEREAFAESLRTSLKEIGENVHIYLIGKESSRTHSLAVSLHCAEDDSISVSGQNSLCHQITAACKHGGDLYVVGGSIPRPRRMWKCNNATVDWEWCAPLPRDRLQHTLVSVPGKDAIYSLGGKTLQDTLSNAVIYYRVGDNVWTETTQLEVAVSGAAGANLNGIIYLLGGEENDLDFFTKPSRLIQCFDTETDKCHVKPYVLPFAGRMHAAVHKDLVFIVAEGDSLVCYNPLLDSFTRLCLPEAWSSAPSLWKIASCNGSIYVFRDRYKKGDANTYKLDPATSAVTVTRGIKVLLTNLQFVLA
modifications: here or on the partner: RED-NHS 2nd generation fluorescent label, in the MST experiments only; RED-NHS 2nd generation fluorescent label, in the MST experiments only
For B1, the stoichiometry N in test [3] came out at 2.

B2: FLAG-KBTBD4^WT (17-534 a.a.), Q9NVX7-2 17-534 (natural protein)
chain: MESPEEPGASMDENYFVNYTFKDRSHSGRVAQGIMKLCLEEELFADVTISVEGREFQLHRLVLSAQSCFFRSMFTSNLKEAHNRVIVLQDVSESVFQLLVDYIYHGTVKLRAEELQEIYEVSDMYQLTSLFEECSRFLARTVQVGNCLQVMWLADRHSDPELYTAAKHCAKTHLAQLQNTEEFLHLPHRLLTDIISDGVPCSQNPTEAIEAWINFNKEEREAFAESLRTSLKEIGENVHIYLIGKESSRTHSLAVSLHCAEDDSISVSGQNSLCHQITAACKHGGDLYVVGGSIPRRMWKCNNATVDWEWCAPLPRDRLQHTLVSVPGKDAIYSLGGKTLQDTLSNAVIYYRVGDNVWTETTQLEVAVSGAAGANLNGIIYLLGGEENDLDFFTKPSRLIQCFDTETDKCHVKPYVLPFAGRMHAAVHKDLVFIVAEGDSLVCYNPLLDSFTRLCLPEAWSSAPSLWKIASCNGSIYVFRDRYKKGDANTYKLDPATSAVTVTRGIKVLLTNLQFVLA
modifications: here or on the partner: RED-NHS 2nd generation fluorescent label, in the MST experiments only; RED-NHS 2nd generation fluorescent label, in the MST experiments only
Molecule B2 showed a stoichiometry N in test [4] of 2.

One may read the stoichiometry N as a count of units in the complex or per binding partner.
